The values that follow come from patent US6153624A, “Pyrrolidine and piperidine derivatives and treatment of neurodegenerative disorders” (Hoffman-LaRoche Inc., priority 1998, dated 2000).

SMILES strings stand for the structures.

The target in assay [1] is T1, N-methyl-D-aspartate (NMDA) receptor containing the NR2B subunit (Rattus norvegicus, UniProt P35439+Q00960).
T1 construct: Membranes were prepared by homogenization of the whole brain minus cerebellum and medulla oblongata; from tissue; host or cells: rat whole brain minus cerebellum and medulla oblongata, membranes
T1 sequence (Q00960 27-1482, other chains not shown): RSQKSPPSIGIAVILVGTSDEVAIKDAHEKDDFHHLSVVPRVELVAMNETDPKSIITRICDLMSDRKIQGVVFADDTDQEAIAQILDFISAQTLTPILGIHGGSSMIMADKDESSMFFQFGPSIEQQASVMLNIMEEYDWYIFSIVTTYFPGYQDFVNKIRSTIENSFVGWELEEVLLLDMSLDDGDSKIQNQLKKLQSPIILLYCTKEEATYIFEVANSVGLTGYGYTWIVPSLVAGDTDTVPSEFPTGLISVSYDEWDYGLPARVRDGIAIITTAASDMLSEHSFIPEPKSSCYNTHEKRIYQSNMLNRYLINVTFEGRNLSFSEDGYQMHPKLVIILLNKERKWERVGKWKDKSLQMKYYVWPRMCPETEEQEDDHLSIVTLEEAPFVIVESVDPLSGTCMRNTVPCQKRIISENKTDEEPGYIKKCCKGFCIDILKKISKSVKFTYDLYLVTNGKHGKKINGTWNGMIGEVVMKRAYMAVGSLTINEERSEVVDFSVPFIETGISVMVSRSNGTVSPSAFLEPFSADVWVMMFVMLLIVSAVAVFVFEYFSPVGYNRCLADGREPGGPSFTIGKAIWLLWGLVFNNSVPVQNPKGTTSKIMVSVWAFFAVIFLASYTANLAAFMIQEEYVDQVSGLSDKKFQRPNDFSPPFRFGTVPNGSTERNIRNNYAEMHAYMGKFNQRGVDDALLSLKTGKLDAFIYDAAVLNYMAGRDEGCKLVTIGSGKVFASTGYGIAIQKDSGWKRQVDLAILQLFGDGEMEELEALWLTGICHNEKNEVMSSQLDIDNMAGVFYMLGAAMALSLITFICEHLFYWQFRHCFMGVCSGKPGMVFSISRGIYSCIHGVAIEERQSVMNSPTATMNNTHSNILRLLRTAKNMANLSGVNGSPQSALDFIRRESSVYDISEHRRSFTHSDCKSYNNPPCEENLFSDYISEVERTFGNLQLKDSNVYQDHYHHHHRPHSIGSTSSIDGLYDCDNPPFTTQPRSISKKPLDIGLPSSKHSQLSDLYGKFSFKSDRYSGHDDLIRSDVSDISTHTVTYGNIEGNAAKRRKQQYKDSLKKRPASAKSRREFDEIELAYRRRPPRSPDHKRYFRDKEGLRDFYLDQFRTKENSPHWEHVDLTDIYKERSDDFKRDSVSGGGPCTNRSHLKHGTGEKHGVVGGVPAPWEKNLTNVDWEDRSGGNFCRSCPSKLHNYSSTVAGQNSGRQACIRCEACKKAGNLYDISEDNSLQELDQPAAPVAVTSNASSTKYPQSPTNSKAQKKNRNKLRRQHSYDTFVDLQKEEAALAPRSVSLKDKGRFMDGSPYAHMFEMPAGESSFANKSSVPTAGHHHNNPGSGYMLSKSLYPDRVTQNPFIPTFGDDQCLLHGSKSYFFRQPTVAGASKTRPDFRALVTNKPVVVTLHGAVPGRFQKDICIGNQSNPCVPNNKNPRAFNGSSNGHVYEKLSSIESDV
Briefly: 3H-Ro 25-6981 binding (displacement) to rat brain membranes. Also noted: species or system rat (male Fullinsdorf albino). Particulars: 3H-Ro 25-6981 5 nM, 2 hours at 4° C., pH 7.4, rat whole brain minus cerebellum and medulla oblongata. From the text:
In the following test RO 25-6981 ([R-(R*,S*)]-a-(4-Hydroxy-phenyl)-b-methyl-4-(phenyl-methyl)-1-piperidine propanol)has been used as a high and selective blocker of N-methyl-D-aspartate (NMDA) receptor containing the NR2B subjunit. The interaction of RO 25-6981 with NMDA receptors is characterized by the described test in vitro.
3H-Ro 25-6981 binding (Ro 25-6981 is [R-(R*,S*)]-a-(4-Hydroxy-phenyl)-b-methyl-4-(phenyl-methyl)-1-piperidine propanol)
Male Fullinsdorf albino rats weighing between 150-200 g were used. Membranes were prepared by homogenization of the whole brain minus cerebellum and medulla oblongata with a Polytron (10.000 rpm, 30 seconds), in 25 volumes of a cold Tris-HCl 50 mM, EDTA 10 mM, pH 7.1 buffer. The homogenate was centrifuged at 48.000 g for 10 minutes at 4° C. The pellet was resuspended using the Polytron in the same volume of buffer and the homogenate was incubated at 37° C. for 10 minutes. After centrifugation the pellet was homogenized in the same buffer and frozen at -80° C. for at least 16 hours but not more than 10 days. For the binding assay the homogenate was thawed at 37° C., centrifuged and the pellet was washed three times as above in a Tris-HCl 5 mM, pH 7.4 cold buffer. The final pellet was resuspended in the same buffer and used at a final concentration of 200 μg of protein/ml.
3H-Ro 25-6981 binding experiments were performed using a Tris-HCl 50 mM, pH 7.4 buffer. For displacement experiments 5 nM of 3H-Ro 25-6981 were used and non specific binding was measured using 10 μm of tetrahydroisoquinoline and usually it accounts for 10% of the total. The incubation time was 2 hours at 4° C. and the assay was stopped by filtration on Whatmann GF/B glass fiber filters (Unifilter-96, Packard, Zurich, Switzerland). The filters were washed 5 times with cold buffer. The radioactivity on the filter was counted on a Packard Top-count microplate scintillation counter after addition of […] of microscint 40 (Canberra Packard S. A., Zurich, Switzerland).
The effects of compounds were measured using a minimum of 8 concentrations and repeated at least once. The pooled normalized values were analyzed using a non-linear regression calculation program which provide IC50 with their relative upper and lower 95% confidence limits (RS1, BBN, USA).

The test system of assay [2] is NMDA receptors. Particulars: Journ. of Pharmacology, Vol. 283, No.8, 1285-1297; cited from earlier work.

By IC50 is commonly meant the midpoint of a concentration-inhibition curve. Low values mean greater potency in that assay, high ones weaker potency in that assay. For `Oc1ccc([C@@H](O)[C@@H]2CC[C@@H](CCc3ccccc3)N2)cc1` (racemic) [Example 1, 4-[(RS)-hydroxy-[(2SR,5RS)-5-phenethyl-pyrrolidin-2-yl]-methyl]-phenol], in assay [1], the half-maximal inhibitory concentration (IC50) was found to be 20 nM.

For `COc1ccc(CC[C@H]2CC[C@@H]([C@H](O)c3ccc(O)c(F)c3)N2)cc1` (racemic) [Example 2, 2-fluoro-4-[(RS)-hydroxy-[(2SR,5SR)-5-[2-(4-methoxy-phenyl)-ethyl]-pyrrolidin-2-yl]-methyl]-phenol], the IC50 in assay [1] came to 30 nM.

Turning to `COc1ccc(CC[C@@H]2CC[C@H](Cc3ccc(O)cc3)N2)cc1` (racemic) [Example 4, (2RS,5RS)-4-[5-[2-(4-methoxy-phenyl)-ethyl]-pyrrolidin-2-ylmethyl]-phenol], in assay [1], the IC50 came to 40 nM.

Molecule `Oc1ccc([C@@H](O)[C@@H]2CC[C@@H](CCc3ccccc3)N2)cc1O` (racemic) [Example 5, 4-[(RS)-hydroxy-[(2SR,5RS)-5-phenethyl-pyrrolidin-2-yl]-methyl]-benzene-1,2-diol] registered an IC50 in assay [1] of 40 nM.

For `COc1ccc(CC[C@@H]2CCC[C@H](Cc3ccc(O)cc3)N2)cc1` (racemic) [Example 6, (2RS,6SR)-4-[6-[2-(4-methoxy-phenyl)-ethyl]-piperidin-2-ylmethyl]-phenol], in assay [1], the IC50 was 45 nM.

Regarding `COc1ccc(CCC2CCC(C(=O)c3ccc(O)cc3)N2)cc1` (racemic) [Example 7, Mixture of (2RS,5RS)-- and (2RS,5SR)-(4-hydroxy-phenyl)-[5-[2-(4-methoxy-phenyl)-ethyl]-pyrrolidin-2-yl]-methanone], the IC50 in assay [1] was found to be 70 nM.

The molecule `Oc1ccc([C@H]2OCCN3[C@@H](CCc4ccccc4)CC[C@H]23)cc1` (racemic) [Example 35, (1RS,6SR,8aRS)-4-(6-phenethyl-hexahydro-pyrrolo[2,1-c][1,4]oxazin-1-yl)-phenol] had an IC50 in assay [1] of 90 nM.

For `Oc1ccc([C@H]2OCN3[C@H](CCc4ccccc4)CC[C@@H]23)cc1` (racemic) [Example 37, (1RS ,5RS,7aSR)-4-(5-phenethyl-tetrahydro-pyrrolo[1,2-c]oxazol-1-yl)-phenol], in assay [1], the half-inhibitory concentration (IC50) came out at 50 nM.

As for `COc1ccc(CC[C@@H]2CCC[C@H](C(O)c3ccc(O)cc3)N2)cc1` (stereo partly shown) [Example 3], the IC50 in assay [1] was determined as 30 nM.

In the case of `C[C@@H](CN1CCC(Cc2ccccc2)CC1)[C@@H](O)c1ccc(O)cc1` [RO 25-6981, [R-(R*,S*)]-a-(4-Hydroxy-phenyl)-b-methyl-4-(phenyl-methyl)-1-piperidine propanol], in assay [2], the “demonstration of NMDA receptor block (in words)” value is on record as “highly selective, activity-dependent blocker of NMDA receptors”.
